Where two headings read alike, the source gives them in different places.
How the values were obtained:
[1] = system: biomarker-presenting cell lines; assay: Cytotoxicity of disulfiram metabolites to biomarker-presenting cell lines; type: cell-based; details: compared with the cytotoxicity of disulfiram (DSF)
From the text: (§1) Biological replicates were averaged and normalized to vehicle control. Dose curves were generated using Graphpad Prism.

SH10TC cells [2] = assay: CellTiter-Glo cellular viability assay, dose-response curves (FIG. 5B)
Description: (§2) Cell viability was assayed using a modified manufacturer's protocol for CellTiter-Glo® (Promega #G7573). Cells were seeded at a density of 2000 cells per well in a 96 well black, clear bottom plate (Corning #89091-012) in 100 uL total media per well. The following day different concentrations of compounds at various doses were printed in triplicate in a random well format using the Tecan D300e Digital Dispenser. After 120H, 60 μL of a 1:3 solution of CellTiterGlo reagent in 1×PBS (Corning #01018002) was added per well and allowed to incubate at RT for 10 mins. Luminescence was measured with an integration time of 0.1 s using Envision Microplates Reader (PERKIN ELMER #2105-0010). Biological replicates were averaged and normalized to vehicle control. Dose curves were generated using Graphpad Prism.

G401 cells [3] = assay: as above
Description: as §2

[4] = system: PRISM cancer cell lines stratified by chromosome 16q status; assay: PRISM multiplexed cellular viability assay (drug repurposing library); type: cell-based, human; details: for cell killing profile: PRISM screen, compared with other compounds of the drug repurposing library
Description: Parental cell lines were obtained from the Cancer Cell Line Encyclopedia (CCLE) project (1). PRISM cell line barcoding, pooling, and screening was performed as previously described with several improvements to the original method (2). First, the lentiviral vector was modified to encode the unique barcode identifier at the end of the puromycin resistance gene. This enables barcodes to be detected using a variant of the mRNA capture and Luminex detection method developed for the L1000 gene expression assay (3). Second, a set of ten inert barcodes were spiked-in to each well of each plate after cell lysis to control for variation in PCR amplification as detailed below.
MFI values were log-transformed (log MFI) and used to perform basic quality control. To detect probable screening artifacts, log MFI values were centered to the median log MFI for each cell line on each plate in order to put the measurements from each cell line on the same scale. For each well on each plate, the median of these centered values was then standardized according to the global median and global MAD across all plate wells in the same position. Data from wells with a standardized score of greater than 5 or less than −5 were excluded from all further processing steps.
Cell viability was calculated as the ratio of nMFI to the median of the nMFI from the DMSO-treated negative controls for each cell line on each plate. Batch effects produced from variable detection and assay conditions were then removed using ComBat (4). The final viability values were calculated as the median of the batch-corrected cell viabilities from biological replicates for each cell line, compound and dose.
Measures of dose response were obtained by fitting 3-parameter logistic curves to viability values for each compound and cell line using the R package ‘dre’. Following the practice of Smirnov and Safikhani (5), viability was truncated at 1.0 and fit as a function of drug concentration according to: […]
[formula] The Area Under the dose response Curve (AUC) was calculated using the normalized integral: […]

SF295 cells = assay: Viability of SF295 cells with or without CRISPR-Cas9 MTF1 knockout (FIG. 7); type: cell-based; details: MTF1 sg1 and MTF1 sg2 versus control guide GFP sg1
From the text: XP003, XP023, psPAX, and pMD2.G vectors were acquired from the Broad Genetic Perturbation Platform (GPP). Oligos for sgRNAs designs were generated using Broad GPP sgRNA guide generator resource (broad institute.org/gpp/db/analysis-tools/sgrna-design) and the respective oligos were synthesized by Integrated DNA Technologies. In order to clone the sgRNAs into either the XPR003 guide only or XPRO23 all-in-one crispr lentiviral expression systems the protocol available on the Broad GPP website (broadinstitute.org/gpp/db/resources/protocols) was followed.
A mixture of 3E6 cells, virus, and media with 4 μg/mL polybrene (Millipore) at a total volume of 2 mL was plated per well of a 12 well plate. Cells were centrifuged at 2000 RPM for 2 hours at 30° C. After removal from incubator, 2 mL of fresh media was added to each well and cells were allowed to incubate at 37° C. overnight. The following day cells were selected for with puromycin for 3-10 days, or until the non-infected control cell were completely non-viable.
as §1

metastatic melanoma = details: cited from earlier work
SH10TC cells [5] = system: SH10TC cells
Description: as §2

G401 cells [6] = system: G401 cells
Description: as §2

[7] = in chloroform, acetone and ether; cited from earlier work
[8] = cited from earlier work
[9] = order paclitaxel, elesclomol, disulfiram/thiram, DDC

Row | Molecule | biomarker-predicted cytotoxic activity [1] | cytotoxic activity (dose-response) (SH10TC cells [2]) | cytotoxic activity (dose-response) (G401 cells [3]) | further results
1 | CCN(CC)C(=S)S [DDC, Diethyldithiocarbamic acid] | retain the cytotoxicity | active | active | rank of cytotoxicity IC50 among active agents (SH10TC cells [2]; [9]): highest IC50 value among those compounds that exhibited activity; rank of cytotoxicity IC50 among active agents (G401 cells [3]; [9]): highest IC50 value among those compounds that exhibited activity
2 | CCN(CC)C(=S)SSC(=S)N(CC)CC [disulfiram, Disulfiram] |  | active | active | disulfiram cytotoxicity (linear AUC) versus chromosome 16q status ([4]; Mann-Whitney U test, cell lines binned as 16q loss, normal, gain, 480 cell lines): strongly correlated with 16q loss
3 | CN(NC(=O)CC(=O)NN(C)C(=S)c1ccccc1)C(=S)c1ccccc1 [elesclomol, Elesclomol] |  | active | active | cell killing profile [4]: shared cell killing profile specific for cancer cell lines having 16q loss; effect of MTF1 knockout on sensitivity of SF295 cells (SF295 cells): sensitized; progression-free survival (metastatic melanoma; phase III study, combined with paclitaxel, halted in 2013): did not significantly increase progression-free survival; progression-free survival (metastatic melanoma; small randomized phase II study, given in addition to paclitaxel): significantly increase progression-free survival
4 | CCN(CC)C(=S)SC [methyl DDC, Methyl diethyldithiocarbamate] | not observed to be cytotoxic | inactive | inactive | 
5 | CC(=O)O[C@H]1C(=O)[C@@]2(C)[C@H]([C@H](OC(=O)c3ccccc3)[C@]3(O)C[C@H](OC(=O)[C@H](O)[C@@H](NC(=O)c4ccccc4)c4ccccc4)C(C)=C1C3(C)C)[C@]1(OC(C)=O)CO[C@@H]1C[C@@H]2O [paclitaxel] |  | active | active | rank of cytotoxicity IC50 among active agents (SH10TC cells [5]): lowest IC50 value; rank of cytotoxicity IC50 among active agents (G401 cells [6]): lowest IC50 value
6 | CN(C)C(=S)SSC(=S)N(C)C [thiram, Thiram] |  | active | active | cell killing profile [4]: shared cell killing profile specific for cancer cell lines having 16q loss; solubility [7]: dissolve completely; toxicity ([8]; by ingestion): moderately toxic; toxicity ([8]; if inhaled): highly toxic
7 | copper(II) diethyldithiocarbamate [Cu-DDC] | retain the cytotoxicity |  |  | 

— patent US12435377B2, “Cancers with loss of chromosome 16Q and/or low expression of metallothionein proteins” (THE BROAD INSTITUTE, INC., priority 2018, dated 2025)
